Measured values as given in patent US20150010928A1, “MEANS AND METHODS FOR ASSESSING AN ENDOCRINE DISEASE OR DISORDER” (priority 2012, published 2015).
Marks after values point to notes of the source that are not given here. One block for each compound: values may come before it.

Experiments:
[1] = system: female rats; experiment: Plasma metabolite profiling (GC-MS, LC-MS, SPE-LC-MS) in female rats dosed once daily over 28 days (OECD 407); format: in vivo, rat; conditions: high dose, Table 14a
Experimental: Each dose group in the studies consisted of five rats per sex. Additional groups of each 5 male and female animals served as controls. […] All animals of the animal population were kept under the same constant temperature (20-24±3° C.) and the same constant humidity (30-70%). The animals of the animal population were fed ad libitum. The food to be used was essentially free of chemical or microbial contaminants. Drinking water was also offered ad libitum. Accordingly, the water was free of chemical and microbial contaminants as laid down in the European Drinking Water Directive 98/83/EG. The illumination period was 12 hours light followed by 12 hours darkness (12 hours light, from 6:00 to 18:00, and 12 hours darkness, from 18:00 to 6:00). […] The test substances (compounds) in the Tables 1 to 17 below were dosed and administered as described in the Table 18.
In the morning of day 7, 14, and 28, blood was taken from the retroorbital venous plexus from fasted anaesthetized animals. From each animal, 1 ml of blood was collected with EDTA as anticoagulant. The samples were centrifuged for generation of plasma. All plasma samples were covered with a N2 atmosphere and then stored at −80° C. until analysis.
For mass spectrometry-based metabolite profiling analyses plasma samples were extracted and a polar and a non-polar (lipid) fraction was obtained. For GC-MS analysis, the non-polar fraction was treated with methanol under acidic conditions to yield the fatty acid methyl esters. Both fractions were further derivatised with O-methyl-hydroxyamine hydrochloride and pyridine to convert Oxogroups to O-methyloximes and subsequently with a silylating agent before analysis. In LC-MS analysis, both fractions were reconstituted in appropriate solvent mixtures. HPLC was performed by gradient elution on reversed phase separation columns. Mass spectrometric detection which allows target and high sensitivity MRM (Multiple Reaction Monitoring) profiling in parallel to a full screen analysis was applied as described in WO2003073464.
Steroids and their metabolites were measured by online SPE-LC-MS (Solid phase extraction-LC-MS).
Following comprehensive analytical validation steps, the data for each analyte were normalized against data from pool samples. These samples were run in parallel through the whole process to account for process variability. The significance of treatment group values specific for sex, treatmentduration and metabolite was determined by comparing means of the treated groups to the means of the respective untreated control groups using WELCH-test and quantified with treatment ratios versus control and p-values.
The identification of the most important biomarkers per toxicity pattern was done by a ranking of the analytes in the tables below. Therefore the metabolic changes in reference treatments of a given pattern (shown in the table) were compared with changes of the same metabolite in other unrelated treatments. […] The maximum absolute value of the respective TVALUE was taken to indicate the most important metabolite for the pattern.

[2] = system: male rats; experiment: Plasma metabolite profiling (GC-MS, LC-MS, SPE-LC-MS) in male rats dosed once daily over 28 days (OECD 407); format: in vivo, rat; conditions: high dose; for Cholesterol / Choline plasmalogen No 02 / Lignoceric acid (C24:0) / Sphingomyelin (d18:1, C16:0) / Sphingomyelin (d18:2, C16:0) / erythro-Sphingosine (d18:1): Table 14b
How it was run: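 Polar and lipid fractions profiled by GC-MS and LC-MS/MRM, steroids by online SPE-LC-MS; pool-normalized data compared to controls by Welch test as treatment ratios and p-values.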

Compound: CCC(=O)Oc1ccc(/C(CC)=C(\CC)c2ccc(OC(=O)CC)cc2)cc1 [Diethylstilboestrol dipropionate]
Cholesterol ([1]; f7): 0.48 *
Choline plasmalogen No 02 ([1]; f7): 0.7 *
Lignoceric acid (C24:0) ([1]; f7): 0.49 *
Sphingomyelin (d18:1, C16:0) ([1]; f7): 0.72 *
Sphingomyelin (d18:2, C16:0) ([1]; f7): 0.67 *
erythro-Sphingosine (d18:1) ([1]; f7): 0.38 *
Cholesterol ([1]; f14): 0.69 *
Choline plasmalogen No 02 ([1]; f14): 0.75 *
Lignoceric acid (C24:0) ([1]; f14): 0.6 *
Sphingomyelin (d18:1, C16:0) ([1]; f14): 0.59^
Sphingomyelin (d18:2, C16:0) ([1]; f14): 0.71 *
erythro-Sphingosine (d18:1) ([1]; f14): 0.67 *
Cholesterol ([1]; f28): 0.58 *
Choline plasmalogen No 02 ([1]; f28): 0.67 *
Lignoceric acid (C24:0) ([1]; f28): 0.59 *
Sphingomyelin (d18:1, C16:0) ([1]; f28): 0.73 *
Sphingomyelin (d18:2, C16:0) ([1]; f28): 0.58 *
erythro-Sphingosine (d18:1) ([1]; f28): 0.46 *

Cholesterol ([2]; m7): 0.45
Choline plasmalogen No 02 ([2]; m7): 0.59
Lignoceric acid (C24:0) ([2]; m7): 0.49
Sphingomyelin (d18:1, C16:0) ([2]; m7): 0.41
Sphingomyelin (d18:2, C16:0) ([2]; m7): 0.49
erythro-Sphingosine (d18:1) ([2]; m7): 0.28
Cholesterol ([2]; m14): 0.51
Choline plasmalogen No 02 ([2]; m14): 0.6
Lignoceric acid (C24:0) ([2]; m14): 0.63
Sphingomyelin (d18:1, C16:0) ([2]; m14): 0.63
Sphingomyelin (d18:2, C16:0) ([2]; m14): 0.52
erythro-Sphingosine (d18:1) ([2]; m14): 0.41
Cholesterol ([2]; m28): 0.51
Choline plasmalogen No 02 ([2]; m28): 0.68
Lignoceric acid (C24:0) ([2]; m28): 0.63
Sphingomyelin (d18:1, C16:0) ([2]; m28): 0.6
Sphingomyelin (d18:2, C16:0) ([2]; m28): 0.6
erythro-Sphingosine (d18:1) ([2]; m28): 0.42
Compound: CC/C(=C(\c1ccccc1)c1ccc(OCCN(C)C)cc1)c1ccccc1 [Tamoxifen]

Compound: CC1(C)CCC(=Cc2ccc(Cl)cc2)C1(O)Cn1cncn1 (stereo not shown) [Triticonazole]
Glycerol, polar fraction ([2]; m7, male rats, Table 16): 1.03
Testosterone ([2]; m7, male rats, Table 16): 0.55 *
Testosterone ([2]; m14, male rats, Table 16): 1.03
Testosterone ([2]; m28, male rats, Table 16): 0.23 *

Compound: C=CC1(C)OC(=O)N(c2cc(Cl)cc(Cl)c2)C1=O (stereo not shown) [Vinclozolin]
Testosterone ([2]; m7, Table 11a): 1.41^
Testosterone ([2]; m14, Table 11a): 2.44 *
Testosterone ([2]; m28, Table 11a): 1.09^
